Data from patent publication US12109245B2, “Extract of aerial parts of Maca rich in polyphenols and composition comprising same” (LABORATOIRES EXPANSCIENCE, priority 2010, dated 2024).

How the values were obtained:
Assay type in all cases: cell-based
Jurkat cell lines = experiment: UV-induced lipid peroxidation (C11-Fluor probe, flow cytometry); settings: 100 μM BHT
Method: Jurkat cell lines were pre-incubated for 45 minutes in the presence of 0.005% and 0.01% (w/v of active substance) Maca leaf extract (MC) or 100 μM BHT (reference) and in the presence of the C11-Fluor fluorescent probe, specific for lipid peroxidation.
The cells were then irradiated with UVA+B and incubated for 30 minutes in the presence of MC or BHT.
At the end of incubation, the quantity of lipid peroxides was evaluated by means of a flow cytometry analysis of the fluorescence intensity (inversely proportional to oxidation).
The results were analysed were analysed statistically using a Student's t test.

Human neutrophils = experiment: Release of elastase by neutrophils; settings: 10 μg/ml Boswellic acid
Method: Human neutrophils were treated for 15 minutes with 0.005 and 0.01% (w/v of active substance) Maca leaf extract (MC) or with 10 μg/ml Boswellic acid (reference) and stimulated with 1 μM calcium ionophore A23187, for 10 minutes. The release of elastase was evaluated by measuring the elastase activity with a spectrophotometric method. The results were analysed statistically using a Student's t test.

Normal human adipocytes = experiment: Evaluation of lipogenesis in adipocytes ([14C]-acetate incorporation); settings: 20 μM cerulenin
Method: Normal human adipocytes were incubated for 1 hour in the presence of 0.005% and 0.01% (w/v of active substance) Maca leaf extract or reference (20 μM cerulenin). After incubation, the radioactive marker [^14C]-acetate was added and the samples were incubated overnight.
At the end of incubation, the lipids were extracted and the incorporated radioactivity (corresponding to lipogenesis) was measured by means of liquid scintillation.
The results were analysed statistically using a Student's t test.

[1] = test system: Human keratinocytes (NCTC-2544 line); experiment: PMA-induced IL8 and PGE2 production by keratinocytes (ELISA)
Method: The cells were then treated with 0.1 μg/ml PMA (Phorbol Myristate Acetate) for 24 hours, also in the presence of MC or the references. Following the treatment, the quantities of IL8 (interleukin8) and PGE2 (prostaglandin E2) secreted were measured by means of ELISA in the culture supernatants. The results were analysed statistically using a Student's t test.

[2] = test system: Normal human dermal fibroblasts; experiment: Gene expression of dermal matrix markers in fibroblasts (real-time RT-PCR); settings: 5 ng/ml TGFβ1, 24 hours
Method: Normal human dermal fibroblasts were treated for 24 hours with 0.002% and 0.005% (w/v of active substance) Maca leaf extract (MC) or with 5 ng/ml TGFβ1 (reference).
At the end of incubation, the gene expression of various dermal matrix markers was analysed by means of real-time RT-PCR.
The results were analysed statistically by means of a one-factor ANOVA followed by a Dunnett test.

## Cc1cc(C(C)(C)C)c(O)c(C(C)(C)C)c1 [BHT]
Jurkat cell lines
  Protection (%) against UV-induced lipid peroxidation: 49%
Jurkat cell lines; UVA+B irradiated cells = 100
  Lipid peroxidases (% irradiated reference): 64%

## C[C@H]1[C@H](C)CC[C@]2(C)CC[C@]3(C)C(=CC[C@@H]4[C@@]5(C)CC[C@@H](O)[C@](C)(C(=O)O)[C@@H]5CC[C@]43C)[C@H]12 [Boswellic acid]
Human neutrophils; 15 minutes, 1 μM calcium ionophore A23187 = 100
  Elastase (net release; %): 50.90 ± 7.49%
Human neutrophils; Homo sapiens, Neutrophil
  inhibition at 10 µg/mL: 49%

## C/C=C/C/C=C/CCC(=O)[C@H]1O[C@H]1C(N)=O [Cerulenin, cerulenin]
Normal human adipocytes; control cells 32895 ± 1358
  Acetate incorporation (cpm): 14934 ± 671 cpm
Normal human adipocytes; Homo sapiens, Adipocyte
  inhibition at 20 µM: 55%

## C[C@@H]1C[C@H]2[C@@H]3CCC4=CC(=O)C=C[C@]4(C)[C@@]3(F)[C@@H](O)C[C@]2(C)[C@@]1(O)C(=O)CO [dexamethasone]
[1]; 10−7M dexamethasone, 0.1 μg/ml PMA
  IL8 Inhibition: 85%
[1]; 10−7M dexamethasone, 0.1 μg/ml PMA 24 hours (PMA alone 50.1 ± 1.8)
  IL8 production: 7.4 ± 0.08 ng/ml %

## COc1ccc2c(c1)c(CC(=O)O)c(C)n2C(=O)c1ccc(Cl)cc1 [indometacin]
[1]; 10−6M indometacin, 0.1 μg/ml PMA
  PGE2 Inhibition: 100%
[1]; 10−6M indometacin, 0.1 μg/ml PMA 24 hours (PMA alone 138.4 ± 10.6)
  PGE2 production: 0.039 ± 0.0 ng/ml %

## TGFβ1: 5 ng/ml TGFβ1 (reference) in the dermal fibroblast test
[2]
  Collagen I gene expression, change vs control: +40%
  Dermatopontin gene expression, change vs control: +34%
  Elastin gene expression, change vs control: +57%
  Fibronectin gene expression, change vs control: +141%
  MMP1 gene expression, change vs control: −78%
[2]; control = 1.00
  Collagen I gene expression (Relative Quantity): 1.40
  Dermatopontin gene expression (Relative Quantity): 1.34
  Elastin gene expression (Relative Quantity): 1.57
  Fibronectin gene expression (Relative Quantity): 2.41
  MMP1 gene expression (Relative Quantity): 0.22
